From publication PMC6965684, “Characterization of binding, functional activity, and contractile responses of the selective 5‐HT1F receptor agonist lasmiditan” (British Journal of Pharmacology, 2019)
Counter-ions that a name gives are not always drawn.

Experiments:
[1] = target: T1, 5-HT1F receptor (Homo sapiens, UniProt P30939); assay: radioligand competition, CHO-K1 membranes; type: binding; conditions: radioligand listed in supplement Table S1; unreliable (pIC50 printed as <[…])
T1 construct: gene HTR1F; full-length human recombinant receptor in CHO-K1 cells (Ogeda)
T1 sequence (P30939 1-366): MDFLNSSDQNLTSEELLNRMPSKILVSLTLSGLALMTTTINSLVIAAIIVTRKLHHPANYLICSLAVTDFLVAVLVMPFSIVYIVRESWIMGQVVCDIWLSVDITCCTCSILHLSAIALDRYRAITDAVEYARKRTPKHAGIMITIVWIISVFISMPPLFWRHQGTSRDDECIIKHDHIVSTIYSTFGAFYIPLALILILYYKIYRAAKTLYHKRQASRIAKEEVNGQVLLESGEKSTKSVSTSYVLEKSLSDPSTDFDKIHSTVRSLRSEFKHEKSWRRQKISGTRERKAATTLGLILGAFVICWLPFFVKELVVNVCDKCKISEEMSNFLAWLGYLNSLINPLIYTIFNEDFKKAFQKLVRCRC
Source text: radioligand competition, CHO-K1 membranes on 5-HT1F receptor

[2] = target: T1, 5-HT1F receptor; assay: cell-based; parameters: species or system CHO-K1; cAMP HTRF agonist assay, Gi coupled receptors, inhibition of stimulated cAMP; conditions: cAMP
Method: Concentration–response curves were performed in parallel with the agonists. For agonist tests, 12 μl of cells were mixed with 6 μl of the test compound (at increasing concentrations) and 6 μl of https://www.guidetopharmacology.org/GRAC/LigandDisplayForward?ligandId=5190 and then incubated for 30 min at room temperature. After addition of the lysis buffer and 1‐hr incubation, cAMP concentrations were estimated according to the manufacturer specification with the HTRF kit (Cisbio International, Codelet, France). In brief, increasing concentrations of agonists were added to stably transfected cells in buffer in an Optiplate (PerkinElmer Life Sciences, Massachusetts, USA). The plates were incubated, and cells were then lysed by the addition of HTRF reagents (cAMP‐Cryptate and anti‐cAMP‐d2 reagents) and diluted in lysis buffer, followed by incubation at room temperature. As 5‐HT1B receptors have been reported in naïve CHO‐K1 cells (George, Bungay, & Naylor, 1997), we also tested https://www.guidetopharmacology.org/GRAC/LigandDisplayForward?ligandId=4 (5‐CT, the reference agonist for the 5‐HT1B receptor), in CHO‐K1 cells transfected with a non‐5‐HT, GPCR. […] For the new assays developed in this study (i.e., 5‐ht1E receptor), the two independent pIC50 determined must be concordant with a 1 log unit interval for the assays to be validated. […]

| Structure (SMILES) | 5-HT1F / pKi [1] | EC50 [2] |
| --- | --- | --- |
| N#Cc1ccc(N2CCN(C(=O)COc3ccc4[nH]cc(CCN)c4c3)CC2)cc1 [Donitriptan hydrochloride] | 5.18 -log M |  |
| CN(C)[C@@H]1CCc2[nH]c3ccc(NC(=O)c4ccc(F)cc4)cc3c2C1 [LY344864 hydrochloride] |  | 1.91 nM |
| CNC1CCc2[nH]c3ccc(C(N)=O)cc3c2C1 (racemic) [Frovatriptan racemate] |  | 79.4 nM |
